The data set is described as follows: gradient 5% acetonitrile 3 min, to 50% in 2 min, to 85% in 15 min, held 3 min, 100 µL/min. The settings on record: column: Zorbax Extend-C18 2.1 x 50 mm; eluents: water / acetonitrile, 0.1% formic acid. Summed up: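 The mobile phases were water and acetonitrile, each with 0.1% formic acid, pumped at 100 μL/min through a Zorbax Extend-C18 column (2.1 × 50 mm, 1.8 μm). Pure standards were injected as mixtures of ~100 molecules and detected by a quadrupole time-of-flight mass spectrometer in positive and negative ionization mode. Retention time came from computationally picked adduct peaks, each inspected by hand.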
`CCCCCOC(=O)Nc1nc(=O)n([C@@H]2O[C@H](C)[C@H](O)C2O)cc1F` (stereo partly drawn) had an RP-LC retention time of 682 s.

Take `CCOc1ccccc1NC(=O)c1sc(-c2cn(CC)c3ncccc23)nc1C`: the RP-LC retention time is 1250 s.

Turning to `O=C(NCCc1csc(-c2cccs2)n1)C1CCN(S(=O)(=O)c2ccc(Cl)cc2)CC1`, the RP-LC retention time is 963 s.

Compound `COc1ccc(N2CCN(S(=O)(=O)c3cc(-c4nc(C(C)C)cs4)sc3C)CC2)cc1` displayed an RP-LC retention time of 1340 s.

The compound `O=C1NCCN2CC3(CCN(C(=O)Nc4ccccc4)CC3)CC12` (stereo not drawn) returned an RP-LC retention time of 570 s.

`COc1ccc(S(=O)(=O)N2CCC(C(=O)Nc3nccs3)CC2)cc1` had an RP-LC retention time of 720 s.

`O=S(=O)(c1ccc(Br)s1)N1CCN(S(=O)(=O)C2CC2)CC1` registered an RP-LC retention time of 854 s.

`CCOc1ccccc1CNC(=O)C1CCCN(c2nnc3ccc(Cl)cn23)C1` (stereo not drawn) came in with an RP-LC retention time of 826 s.

The compound `Cc1cc(Nc2ccc(F)cc2)nc2nn(Cc3cc(=O)n4ccccc4n3)c(=O)n12` yielded an RP-LC retention time of 836 s.

For the compound `CCOc1ccc(CNC(=O)c2ccc3c(c2)nc2n3CCN(C3CCCCC3)C2=O)cc1`, the RP-LC retention time came out at 830 s.

As to `O=C(Cn1cccc1-c1nnc(-c2ccccc2)o1)NCc1cccnc1`, the RP-LC retention time came out at 617 s.

As to `COc1ccc2c(c1)C1(CCN(S(=O)(=O)c3cc(F)cc(F)c3)C1)C(=O)N2` (stereo not drawn), the RP-LC retention time worked out at 872 s.

For `Cc1ccc(-c2noc(-c3nc(-c4ccccn4)no3)n2)cc1`, the RP-LC retention time is 1090 s.

The compound `CCCCc1ccc(NC(=O)CSc2ccc(N3CCCC(C(=O)NC4CC4)C3)nn2)cc1` (stereo not drawn) returned an RP-LC retention time of 800 s.

`CCOC(=O)c1noc2ncnc(N3CCc4ccccc4C3)c12` yielded an RP-LC retention time of 1010 s.

With `Cn1cccc1C(CNS(=O)(=O)c1ccc2c(c1)OCCO2)N1CCOCC1` (stereo not drawn), the RP-LC retention time came to 563 s.

As for `COc1ccc(CNS(=O)(=O)c2cc(-c3[nH]ncc3C(=O)N3CCCC3)oc2C)cc1`, the RP-LC retention time was determined as 718 s.

Take `Cc1ccc(-c2cc3c(N4CCCC(C(=O)NCc5ccc6c(c5)OCO6)C4)nccn3n2)c(C)c1` (stereo not drawn): the RP-LC retention time is 938 s.

Regarding `CN(C)S(=O)(=O)c1ccc(C(=O)N2CC(=O)Nc3ccc(Cl)cc3C2c2ccccc2)cc1` (stereo not drawn), the RP-LC retention time is 873 s.

Compound `O=C(c1ccsc1)N1CCN(c2nnc3ccc(C(F)(F)F)cn23)CC1` came in with an RP-LC retention time of 718 s.

Compound `Cc1nc2ccc(N)nc2nc1C` returned an RP-LC retention time of 594 s.

On to `O=C(O)c1cc2c(s1)CCN(C(=O)c1ccc(Cl)cc1)C2`, for which the RP-LC retention time was 736 s.

Compound `CCCc1cc(C2CCCN2C(=O)c2ccc(OC)c(OC)c2)no1` (stereo not drawn) gave an RP-LC retention time of 793 s.

As for `CCC(C(=O)NCc1ccc(C)o1)n1nc(C)c2c(C)n(-c3ccccc3)nc2c1=O` (stereo not drawn), the RP-LC retention time was 862 s.

Regarding `Cn1c(=O)sc2cc(S(=O)(=O)N3CCC(C(=O)Nc4ccc(F)c(Cl)c4)CC3)ccc21`, the RP-LC retention time was 938 s.

`COc1ccc(-c2noc(Cn3cnc4c(cnn4-c4ccc(OC)cc4)c3=O)n2)cc1` had an RP-LC retention time of 982 s.

`CCCn1c(C)cnc1C1CN(S(=O)(=O)c2ccc(Cl)cc2)C1`: the RP-LC retention time is 678 s.

As for `COCc1nc(-c2ccc(OC3CCN(C(=O)C4(c5ccc(OC)cc5)CC4)C3)cc2)no1` (stereo not drawn), the RP-LC retention time was 896 s.

Compound `Cc1ccc(OCc2ccc(-c3nc(C#N)c(NCCN(C)C)o3)o2)cc1` had an RP-LC retention time of 709 s.

Consider `NC1=NC(=O)/C(=C/c2ccccc2OCC(=O)Nc2ccc(F)cc2)S1`, for which the RP-LC retention time came out at 660 s.

On to `Cc1ccc(CNC(=O)Cn2c(C)cc(-c3nnc(C4CCC4)o3)c2C)cc1C`, for which the RP-LC retention time was found to be 947 s.

Turning to `O=C(c1cccs1)N1N=C(c2cccs2)CC1c1cc([N+](=O)[O-])ccc1O` (stereo not drawn), the RP-LC retention time was 876 s.

As to `Cc1ccc(S(=O)(=O)CCc2noc(C(=O)NCCN3CCC(C)CC3)n2)cc1`, the RP-LC retention time amounted to 631 s.

Regarding `CC(C)NC(=O)N1CCCC(c2cccc(C(=O)NCCCN3CCOCC3)c2)C1` (stereo not drawn), the RP-LC retention time came out at 598 s.

Compound `Cc1ccc(-n2nc(C)c3sc(N4CCCC(C(=O)Nc5cc(Cl)ccc5C)C4)nc32)cc1` (stereo not drawn) registered an RP-LC retention time of 1360 s.

Compound `CCN1C(=O)COc2ccc(-c3noc(CNC(=O)c4ccccc4)n3)cc21` showed an RP-LC retention time of 802 s.

The compound `O=C(NCc1ccc2c(c1)OCO2)C1CCCN(c2ncnc3c2nc2n3CCCCC2)C1` (stereo not drawn) displayed an RP-LC retention time of 750 s.

In the case of `CCn1c(C2CCN(S(=O)(=O)c3ccc(Cl)cc3)C2)nc2cccnc21` (stereo not drawn), the RP-LC retention time was 796 s.

The compound `CCN(CC)CCNC(=O)c1ccc(NCN2C(=O)NC(c3ccccc3)(c3ccccc3)C2=O)cc1` showed an RP-LC retention time of 726 s.

In turn, `COC(=O)c1ccc(C(=O)NCC2(c3cccs3)CCCC2)cc1` yielded an RP-LC retention time of 971 s.

In the case of `Cc1ccsc1C(=O)N1CCCn2nc(-c3ccncc3)cc2C1`, the RP-LC retention time was found to be 602 s.

Compound `Cc1ccc(-c2nc(-c3cccc(-c4ccnn4C)c3)no2)cc1` yielded an RP-LC retention time of 1210 s.

In turn, `O=C1CCC(C(=O)N2CCCn3ccnc3C2C2CCCC2)=NN1` (stereo not drawn) returned an RP-LC retention time of 564 s.

In turn, `CCOC(=O)c1noc2nc(C)nc(N(C)c3cc(C)ccc3OC)c12` displayed an RP-LC retention time of 1040 s.

As for `CSc1ccc(CNC(=O)c2cccc(-c3nc4cccnc4n3C)c2)cc1`, the RP-LC retention time stood at 759 s.

`Cc1ccc(CNC(=O)C2CCN(S(=O)(=O)c3cn(C(C)C)cn3)CC2)cc1`: the RP-LC retention time turned out to be 745 s.

As to `CCOC(=O)Cn1cnc2c(-c3ccc(Br)cc3)csc2c1=O`, the RP-LC retention time was 998 s.

In turn, `CSc1ccccc1C(=O)N1CC2CC1C(=O)O2` (stereo not drawn) came in with an RP-LC retention time of 628 s.

Regarding `CCc1nnc(-c2ccc3ccn(CC(=O)Nc4cc(OC)c(OC)c(OC)c4)c3c2)o1`, the RP-LC retention time was 777 s.

In turn, `COc1ccc(NC(=O)c2cnc3c(c2)c(=O)n(C)c(=O)n3-c2ccccc2)cc1` gave an RP-LC retention time of 862 s.

As for `Fc1ccc(Nc2nc(N3CCOCC3)nc3c2cnn3-c2ccccc2)cc1`, the RP-LC retention time turned out to be 1170 s.

Turning to `CCn1cnc2ccc(-c3noc(COc4ccccc4)n3)cc21`, the RP-LC retention time came out at 742 s.

The compound `Cc1ccc(N2CC(c3noc(-c4ccccc4OC(F)(F)F)n3)CC2=O)cc1` (stereo not drawn) yielded an RP-LC retention time of 819 s.

`COc1ccccc1N1CCN(c2cc(SCC(=O)Nc3cccc(SC)c3)ncn2)CC1` gave an RP-LC retention time of 1020 s.

Compound `Cc1[nH]nc(-c2c(C)sc(C)c2S(=O)(=O)NCCCc2ccccc2)c1C` displayed an RP-LC retention time of 1130 s.

Take `Cc1ccc(-c2cn3ccccc3n2)cc1NS(=O)(=O)c1ccccc1`: the RP-LC retention time turned out to be 630 s.

`CC(C)NC(=O)C1CCc2sc(C(=O)N3CCCC3)cc2C1` (stereo not drawn) returned an RP-LC retention time of 696 s.

`COc1cc(NC(=O)Cn2c(=O)n(C3CCCCC3)c3ncccc32)cc(OC)c1` registered an RP-LC retention time of 954 s.

Compound `CCc1noc(-c2ccc(-n3ncc(C(=O)N4CCSCC4)c3C)nc2)n1` came in with an RP-LC retention time of 893 s.

With `CCC1CCCCN1CCCNC(=O)CCCn1c(=O)c2cccn2c2ccccc21` (stereo not drawn), the RP-LC retention time amounted to 641 s.

For the compound `CC(C)CNC(=O)C1CCCN(c2nc3ccsc3c(=O)n2Cc2ccc(F)cc2)C1` (stereo not drawn), the RP-LC retention time came out at 912 s.

In turn, `O=c1n(Cc2cccc(F)c2)nc2ccc(S(=O)(=O)N3CCCC3)cn12` registered an RP-LC retention time of 856 s.

In the case of `COc1ccccc1-c1nnc(-c2cc(S(=O)(=O)N3CCC(C)CC3)ccc2Cl)o1`, the RP-LC retention time was 1160 s.

With `Cc1cccc(-c2nn3c(N(C)C)cc(C)nc3c2C)c1`, the RP-LC retention time came to 716 s.

Compound `CC(=O)Nc1ccc(NC(=O)C2CCCN(c3ccc(=O)n(-c4ccc(C)c(Cl)c4)n3)C2)cc1` (stereo not drawn) displayed an RP-LC retention time of 768 s.

In turn, `COc1ccccc1N1CCN(c2ncc3c(n2)CCN(Cc2cccc(F)c2)C3)CC1` yielded an RP-LC retention time of 808 s.

On to `CCc1ccc(S(=O)(=O)N2CCC(c3cc(N)on3)CC2)cc1`, for which the RP-LC retention time is 813 s.

Compound `O=C(C(=O)N1CCOCC1)c1c(-c2ccccc2)cc2ccccn12` showed an RP-LC retention time of 798 s.

As to `Cc1cc(Cc2ccc(S(=O)(=O)N3CCN(C)CC3)cc2)c(=O)[nH]n1`, the RP-LC retention time worked out at 575 s.

Compound `CCOc1ccc(C(C)NC(=O)c2c(C)sc3ccn(CC)c(=O)c23)cc1` (stereo not drawn) registered an RP-LC retention time of 872 s.

The compound `O=C1CCCc2cc(S(=O)(=O)N3CCC(C(=O)NCCC4=CCCCC4)CC3)ccc2N1` returned an RP-LC retention time of 796 s.

For the compound `COc1ccc(CC(=O)N2CCC3(CC2)C(=O)N(C)c2ccccc23)cc1OC`, the RP-LC retention time is 752 s.

Consider `COC(=O)c1c(C)[nH]c(C(=O)N2CCC(CC(=O)NCc3ccc(F)cc3)CC2)c1C`, for which the RP-LC retention time was 727 s.

Compound `Cc1ccc(Nc2ncccc2S(N)(=O)=O)c(F)c1` registered an RP-LC retention time of 840 s.

In turn, `Cc1ccc(NC(=O)Cn2c(C)nc3onc(C)c3c2=O)cc1C` returned an RP-LC retention time of 756 s.

`Cc1ccc(NC(=O)C2CC(=O)N(c3ccc4c(c3)CCN4C(=O)C3CC3)C2)c(F)c1` (stereo not drawn) gave an RP-LC retention time of 787 s.

For `Cc1ccc(CCNC(=O)C2CCCN2S(=O)(=O)c2ccc3c(c2)C(C)(C)C(=O)N3C)cc1` (stereo not drawn), the RP-LC retention time was 896 s.

On to `CCOc1ccc(-c2nc(C3CC(=O)N(c4ccc(Cl)cc4)C3)no2)cc1OCC` (stereo not drawn), for which the RP-LC retention time was determined as 1150 s.

Values taken from the METLIN SMRT retention time set (Domingo-Almenara et al. 2019).
